Here are results for five molecules from PMC8202330, “Phosphorylation of the LIR Domain of SCOC Modulates ATG8 Binding Affinity and Specificity” (Journal of Molecular Biology, 2021).

Where two headings read alike, the source gives them in different places.

Type in all cases: binding
In one experiment the target is T1, LC3A (Homo sapiens, UniProt Q9H492).
T1 construct: GST (followed by 3C protease cleavage site) (N); made in house
Put plainly: Bio-layer interferometry (BLI) affinity of SCOC LIR peptides for LC3A. The procedure: (§1) Bio-layer interferometry (BLI) is an optical analytical technique for measuring kinetics of interactions in real-time. The biosensor tip surface immobilized with a ligand is incubated with an analyte in solution, resulting in an increase in optical thickness at the biosensor tip and a wavelength shift, which is a direct measure of the change in thickness. Bio-layer interferometry analyses of ATG8s binding to immobilized biotinylated LIR peptides were performed using an Octet Red 96 (ForteBio). […] Ligands-loaded SA biosensors were then incubated with different concentrations of ATG8. All binding experiments were performed in solid-black 96-well plates containing 200 μl of solution (25 mM Tris pH 7.5, 150 mM NaCl, 0.5 mM TCEP, 0.1% Tween20, 1 mg/ml BSA) in each well at 25 °C with an agitation speed of 1000 rpm. Each measurement was repeated 2 to 3 times. Dissociation constants for LIR-ATG8 interactions were determined from plotting the increase in BLI response as a function of the protein concentration and fitting using non-linear regression of ForteBio 7.1 data analysis and GraphPad Prism 7 softwares.
(§2) The following peptides were synthesized using FMOC solid phase peptide chemistry by the Francis CRICK Institute peptide chemistry science technology platform: […]

A further experiment deals with T2, LC3B (Homo sapiens, UniProt Q9GZQ8).
T2 construct: GST (followed by 3C protease cleavage site) (N); made in house
Put plainly: Bio-layer interferometry (BLI) affinity of SCOC LIR peptides for LC3B. The procedure: as §1, §2
(In general: In BLI a coated tip is dipped into the sample, and binding shifts an interference pattern.)

A further experiment concerns the target T3, LC3C (Homo sapiens, UniProt Q9BXW4).
T3 construct: GST (followed by 3C protease cleavage site) (N); made in house
The experiment can be described thus: Bio-layer interferometry (BLI) affinity of SCOC LIR peptides for LC3C. The procedure: as §1, §2

In another experiment the target is T4, GABARAP (Homo sapiens, UniProt O95166).
T4 construct: fused with a Gly-Ser linker to full-length GABARAP (GST-GABARAP (pAL)); GST (followed by 3C protease cleavage site) (N); made in house
The experiment can be described thus: Bio-layer interferometry (BLI) affinity of SCOC LIR peptides for GABARAP. The procedure:
as §1, §2

The target of another experiment is T5, GABARAPL1 (Homo sapiens, UniProt Q9H0R8).
T5 construct: GST-GABARAPL1 full-length (pAL); GST (followed by 3C protease cleavage site) (N); made in house
The experiment can be described thus: Bio-layer interferometry (BLI) affinity of SCOC LIR peptides for GABARAPL1. As to the method:
as §1, §2

In the next experiment the target is T6, GABARAPL2 (Homo sapiens, UniProt P60520).
T6 construct: GST (followed by 3C protease cleavage site) (N); made in house
Put plainly: Bio-layer interferometry (BLI) affinity of SCOC LIR peptides for GABARAPL2. As to the method: as §1, §2

[1] abbreviates: BLI, wild-type and phosphorylated SCOC LIR peptides, Tris pH 7.5, 25 °C, average ± standard error of fit, n = 2–3, Figure 4B, read-out: Kd LC3A.
Setting [2] is: BLI, wild-type and phosphorylated SCOC LIR peptides, Tris pH 7.5, 25 °C, average ± standard error of fit, n = 2–3, Figure 4B, read-out: Kd LC3B.
The mark [3] stands for this setting: BLI, wild-type and phosphorylated SCOC LIR peptides, Tris pH 7.5, 25 °C, average ± standard error of fit, n = 2–3, Figure 4B, read-out: Kd LC3C.
[4] abbreviates: BLI, wild-type and phosphorylated SCOC LIR peptides, Tris pH 7.5, 25 °C, average ± standard error of fit, n = 2–3, Figure 4B, read-out: Kd GAB.
The mark [5] stands for this setting: BLI, wild-type and phosphorylated SCOC LIR peptides, Tris pH 7.5, 25 °C, average ± standard error of fit, n = 2–3, Figure 4B, read-out: Kd GAB-L1.
Where [6] appears, read: BLI, wild-type and phosphorylated SCOC LIR peptides, Tris pH 7.5, 25 °C, average ± standard error of fit, n = 2–3, Figure 4B, read-out: Kd GAB-L2.

T5 sequence (Q9H0R8 whole entry): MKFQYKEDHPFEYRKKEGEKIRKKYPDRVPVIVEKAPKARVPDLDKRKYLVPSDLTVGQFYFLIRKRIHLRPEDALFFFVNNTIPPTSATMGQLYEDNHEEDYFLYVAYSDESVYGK
T6 sequence (P60520 whole entry): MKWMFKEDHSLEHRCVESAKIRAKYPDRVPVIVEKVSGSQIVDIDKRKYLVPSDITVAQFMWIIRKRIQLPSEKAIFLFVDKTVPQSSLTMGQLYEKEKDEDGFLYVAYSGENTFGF
T4 sequence (O95166 whole entry, the tested form may be a part): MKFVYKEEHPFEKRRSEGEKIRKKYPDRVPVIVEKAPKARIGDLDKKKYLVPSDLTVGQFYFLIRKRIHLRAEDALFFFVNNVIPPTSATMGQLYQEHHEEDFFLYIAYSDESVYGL
T3 sequence (Q9BXW4 whole entry): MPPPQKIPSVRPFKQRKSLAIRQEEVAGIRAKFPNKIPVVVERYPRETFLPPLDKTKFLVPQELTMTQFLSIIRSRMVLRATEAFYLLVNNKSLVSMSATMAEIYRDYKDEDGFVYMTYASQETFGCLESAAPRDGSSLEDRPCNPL

For orientation: Kd means the concentration at which binding is half-saturated. As for `CC[C@H](C)[C@H](NC(=O)[C@H](CC(=O)O)NC(=O)[C@H](CC(=O)O)NC(=O)[C@H](C)NC(=O)[C@H](CC(C)C)NC(=O)[C@H](CO)NC(=O)[C@@H](NC(=O)[C@H](CC(N)=O)NC(=O)[C@@H](NC(=O)[C@H](Cc1ccccc1)NC(=O)[C@@H](NC(=O)[C@H](COP(=O)(O)O)NC(=O)[C@H](CC(=O)O)NC(=O)[C@H](CCC(=O)O)NC(=O)[C@H](CCC(=O)O)NC(=O)[C@H](CCC(=O)O)NC(=O)[C@H](CCC(=O)O)NC(=O)[C@@H](N)CCCCN)[C@@H](C)O)[C@@H](C)OP(=O)(O)O)[C@@H](C)CC)C(=O)N[C@@H](CC(=O)O)C(=O)N[C@@H](Cc1c[nH]cn1)C(N)=O` [pS12, pT15], the dissociation constant (Kd) on LC3A was found to be 0.7 ± 0.08 µM; on LC3B, 4.8 ± 0.6 µM; on LC3C, 0.41 ± 0.04 µM; at GABARAP it was 1 ± 0.1 µM; at GABARAPL1, 0.37 ± 0.04 µM; at GABARAPL2, 8.3 ± 0.4 µM.
As for `CC[C@H](C)[C@H](NC(=O)[C@H](CC(=O)O)NC(=O)[C@H](CC(=O)O)NC(=O)[C@H](C)NC(=O)[C@H](CC(C)C)NC(=O)[C@H](CO)NC(=O)[C@@H](NC(=O)[C@H](CC(N)=O)NC(=O)[C@@H](NC(=O)[C@H](Cc1ccccc1)NC(=O)[C@@H](NC(=O)[C@H](COP(=O)(O)O)NC(=O)[C@H](CC(=O)O)NC(=O)[C@H](CCC(=O)O)NC(=O)[C@H](CCC(=O)O)NC(=O)[C@H](CCC(=O)O)NC(=O)[C@H](CCC(=O)O)NC(=O)[C@@H](N)CCCCN)[C@@H](C)O)[C@@H](C)O)[C@@H](C)CC)C(=O)N[C@@H](CC(=O)O)C(=O)N[C@@H](Cc1c[nH]cn1)C(N)=O` [pS12], the Kd amounted to 3 ± 0.4 µM on LC3A (setting [1]); 41.6 ± 4.6 µM on LC3B (setting [2]); 1.4 ± 0.1 µM at LC3C (setting [3]); 1.5 ± 0.1 µM on GABARAP (setting [4]); 0.88 ± 0.08 µM at GABARAPL1 (setting [5]); 12.8 ± 1.3 µM at GABARAPL2 (setting [6]).
In the case of `CC[C@H](C)[C@H](NC(=O)[C@H](CC(=O)O)NC(=O)[C@H](CC(=O)O)NC(=O)[C@H](C)NC(=O)[C@H](CC(C)C)NC(=O)[C@H](COP(=O)(O)O)NC(=O)[C@@H](NC(=O)[C@H](CC(N)=O)NC(=O)[C@@H](NC(=O)[C@H](Cc1ccccc1)NC(=O)[C@@H](NC(=O)[C@H](CO)NC(=O)[C@H](CC(=O)O)NC(=O)[C@H](CCC(=O)O)NC(=O)[C@H](CCC(=O)O)NC(=O)[C@H](CCC(=O)O)NC(=O)[C@H](CCC(=O)O)NC(=O)[C@@H](N)CCCCN)[C@@H](C)O)[C@@H](C)O)[C@@H](C)CC)C(=O)N[C@@H](CC(=O)O)C(=O)N[C@@H](Cc1c[nH]cn1)C(N)=O` [pS18], the Kd amounted to 4.9 ± 0.4 µM on LC3A (setting [1]); 48.9 ± 8.6 µM on LC3B (setting [2]); 1.9 ± 0.2 µM at LC3C (setting [3]); 3.9 ± 0.3 µM on GABARAP (setting [4]); 2.1 ± 0.1 µM on GABARAPL1 (setting [5]); 26 ± 2.4 µM on GABARAPL2 (setting [6]).
On to `CC[C@H](C)[C@H](NC(=O)[C@H](CC(=O)O)NC(=O)[C@H](CC(=O)O)NC(=O)[C@H](C)NC(=O)[C@H](CC(C)C)NC(=O)[C@H](CO)NC(=O)[C@@H](NC(=O)[C@H](CC(N)=O)NC(=O)[C@@H](NC(=O)[C@H](Cc1ccccc1)NC(=O)[C@@H](NC(=O)[C@H](CO)NC(=O)[C@H](CC(=O)O)NC(=O)[C@H](CCC(=O)O)NC(=O)[C@H](CCC(=O)O)NC(=O)[C@H](CCC(=O)O)NC(=O)[C@H](CCC(=O)O)NC(=O)[C@@H](N)CCCCN)[C@@H](C)OP(=O)(O)O)[C@@H](C)O)[C@@H](C)CC)C(=O)N[C@@H](CC(=O)O)C(=O)N[C@@H](Cc1c[nH]cn1)C(N)=O` [pT13], for which the Kd on LC3A is 10.1 ± 1.5 µM; at LC3B, 193 ± 29 µM; at LC3C it was 5 ± 0.5 µM; at GABARAP it was 3.1 ± 0.3 µM; on GABARAPL1, 2 ± 0.2 µM; at GABARAPL2, 33.8 ± 2.6 µM.
Turning to `CC[C@H](C)[C@H](NC(=O)[C@H](CC(=O)O)NC(=O)[C@H](CC(=O)O)NC(=O)[C@H](C)NC(=O)[C@H](CC(C)C)NC(=O)[C@H](CO)NC(=O)[C@@H](NC(=O)[C@H](CC(N)=O)NC(=O)[C@@H](NC(=O)[C@H](Cc1ccccc1)NC(=O)[C@@H](NC(=O)[C@H](CO)NC(=O)[C@H](CC(=O)O)NC(=O)[C@H](CCC(=O)O)NC(=O)[C@H](CCC(=O)O)NC(=O)[C@H](CCC(=O)O)NC(=O)[C@H](CCC(=O)O)NC(=O)[C@@H](N)CCCCN)[C@@H](C)O)[C@@H](C)OP(=O)(O)O)[C@@H](C)CC)C(=O)N[C@@H](CC(=O)O)C(=O)N[C@@H](Cc1c[nH]cn1)C(N)=O` [pT15], the Kd on LC3A was 3.7 ± 0.5 µM; on LC3B, 37.4 ± 4.5 µM; on LC3C, 3.6 ± 0.4 µM; on GABARAP, 3 ± 0.3 µM; at GABARAPL1, 1.2 ± 0.1 µM; at GABARAPL2, 44 ± 4.5 µM.
